Measured values reported in US20240400560A1, “BICYCLIC HETEROCYCLIC DERIVATIVE HAVING VIRAL GROWTH INHIBITORY ACTIVITY AND PHARMACEUTICAL COMPOSITION CONTAINING SAME” (Shionogi & Co., Ltd., priority 2021, published 2024).
Read-outs that look alike come from different tables or passages of the source.

How the values were obtained:
SARS-CoV-2 = assay: Inhibitory activity of cytopathic effect (CPE) in HEK293T/ACE2-TMPRSS2 cells; assay type: cell-based; conditions: Severe acute respiratory syndrome coronavirus 2, HEK-293T, 72 h
SARS-CoV-2 3CL protease = SARS-CoV-2 3CL protease (Severe acute respiratory syndrome coronavirus 2, UniProt P0DTD1); assay: Inhibitory activity test against SARS-CoV-2 3CL proteases; assay type: biochemical
[1] = HEK293T/ACE2-TMPRSS2 cells, cultured 3 days, CellTiter-Glo 2.0 luminescence, read-out: EC50 (50% SARS-CoV-2 infected cell death inhibitory concentration)
[2] = read-out: IC50 (50% SARS-CoV-2 3CL protease inhibitory concentration)
[3] = 50% SARS-CoV-2 infected cell death inhibitory concentration, HEK293T/ACE2-TMPRSS2 cells, CellTiter-Glo 2.0 after 3 days culture, read-out: EC50
[4] = IC50 (50% SARS-CoV-2 3CL protease inhibitory concentration)

Row | SMILES | EC50 (SARS-CoV-2; [1]) [nM] | IC50 (SARS-CoV-2 3CL protease; [2]) [nM] | EC50 (SARS-CoV-2; [3]) [nM] | EC50 (SARS-CoV-2) [nM] | IC50 (SARS-CoV-2 3CL protease; [4]) [nM]
1 | COc1nc(N2CC[C@@H](C#N)C2)cc2c1c(=O)n(-c1cnc3cc(F)c(F)cn13)c(=O)n2-c1ccc(F)c(Cl)c1 [Compound I-0946] | < 100 | < 100 |  |  | 
2 | Cn1cnc(Cn2c(=O)c3c4c(c(-c5cc(C(C)(C)O)ccc5Cl)cc3n(Cc3cc(F)c(F)c(Cl)c3)c2=O)CCO4)n1 [Compound I-0812] |  | 1.1 | 15.8 |  | 
3 | COc1nc2c(=O)n(Cc3ncn(C)n3)c(=O)n(Cc3cc(F)c(F)c(Cl)c3)c2cc1-c1cc2c(cc1Cl)NC(=O)C2 [Compound I-0700] |  | 0.92 | 24.5 |  | 
4 | COc1nc(N2C[C@@H]3C[C@H]2CO3)cc2c1c(=O)n(-c1cnc3cc(F)ccn13)c(=O)n2-c1ccc(F)c(Cl)c1 [Compound I-0943] | < 100 | < 100 |  |  | 
5 | C=Cc1cc2c(c(OC)n1)c(=O)n(-c1cnc3cc(F)ccn13)c(=O)n2-c1ccc(F)c(F)c1 [Compound I-1047] | 100 to 1000 | < 100 |  |  | 
6 | CNc1cc2c(c(OC)n1)c(=O)n(-c1cnc3cc(F)ccn13)c(=O)n2-c1ccc(F)c(Cl)c1 [Compound I-1042] | < 100 | < 100 |  |  | 
7 | COc1nc(N2CC[C@@H](O)C2)cc2c1c(=O)n(-c1cncc(OCF)c1)c(=O)n2-c1ccc(F)c(Cl)c1 [Compound I-0956] | < 100 | < 100 |  |  | 
8 | N#Cc1ccc(Cl)c(-c2cc3c(c(=O)n(-c4cncc(Cl)c4)c(=O)n3Cc3cc(F)c(F)c(F)c3)c3occc23)c1 [Compound I-0863] |  | 5.3 | 52.5 |  | 
9 | Cn1cnc(Cn2c(=O)c3nc(OCC#N)c(-c4cc(C#N)ccc4Cl)cc3n(Cc3cc(F)c(F)c(F)c3)c2=O)n1 [Compound I-0685] |  | 28 | 82.2 |  | 
10 | COc1nc(C2=CCOCC2)cc2c1c(=O)n(-c1cnc3cc(F)ccn13)c(=O)n2-c1ccc(F)c(Cl)c1 [Compound I-1016] | < 100 | < 100 |  |  | 
11 | [2H]C([2H])([2H])O[C@@H]1CCN(c2cc3c(c(OC)n2)c(=O)n(-c2cc(C)cnn2)c(=O)n3-c2ccc(F)c(Cl)c2)C1 [Compound I-0972] | < 100 | < 100 |  |  | 
12 | COc1nc(N2CC[C@@H](O)C2)cc2c1c(=O)n(-c1cncc(OCF)c1)c(=O)n2-c1ccc(F)c(F)c1 [Compound I-1025] | < 100 | < 100 |  |  | 
13 | COc1nc(N2[C@@H]3CC[C@H]2CNC3)cc2c1c(=O)n(-c1cc(C)cnn1)c(=O)n2Cc1cc(F)c(F)c(F)c1 [Compound I-0926] |  |  |  | 106 | 5.1
14 | COc1nc(N2CC[C@@H](C#N)C2)cc2c1c(=O)n(-c1cncc(OC(F)F)c1)c(=O)n2-c1ccc(F)c(Cl)c1 [Compound I-0951] | < 100 | < 100 |  |  | 
15 | Cn1cnc(Cn2c(=O)c3c4ncn(C)c4c(N4CC[C@@H](F)C4)cc3n(Cc3cc(F)c(F)c(F)c3)c2=O)n1 (racemic) [Compound I-0554] |  | 330 | 2750 |  | 
16 | COc1nc(N2CC[C@@H](F)C2)cc2c1c(=O)n(Cc1ncn(C)n1)c(=O)n2-c1cc(C)c(F)c(Cl)c1 [Compound I-0805] | < 100 | < 100 |  |  | 
17 | COCCNc1cc2c(c(OC)n1)c(=O)n(-c1cnc3cc(F)ccn13)c(=O)n2-c1ccc(F)c(Cl)c1 [Compound I-1049] | < 100 |  |  |  | < 100
18 | COc1nc2c(=O)n(Cc3ncn(C)n3)c(=O)n(Cc3cc(Cl)ccc3C)c2cc1-c1cc(C#N)ccc1Cl [Compound I-0717] | < 100 | < 100 |  |  | 
19 | N#Cc1ccc(Cl)c(-c2cc3c(c4c2C(O)CO4)c(=O)n(-c2cncc(Cl)c2)c(=O)n3Cc2cc(F)c(F)c(F)c2)c1 (stereo not shown) [Compound I-0859] |  | 1.9 | 18.7 |  | 

Row | SMILES | EC50 (SARS-CoV-2; [1]) [nM] | IC50 (SARS-CoV-2 3CL protease; [2]) [nM] | EC50 (SARS-CoV-2; [3]) [nM] | EC50 (SARS-CoV-2) [nM] | IC50 (SARS-CoV-2 3CL protease; [4]) [nM]
20 | COc1nc(N2CC[C@@H](C#N)C2)cc2c1c(=O)n(-c1cnc3cc(F)ccn13)c(=O)n2Cc1cc(F)c(F)c(Cl)c1 [Compound I-0736] |  | 12 | 20.1 |  | 
21 | COc1nc(N2CC[C@@H](C#N)C2)cc2c1c(=O)n(Cc1ncn(C)n1)c(=O)n2Cc1cc(F)c(F)c(F)c1 [Compound I-0598] |  | 18 | 13.6 |  | 
22 | COc1nc(NC2CCC2)cc2c1c(=O)n(-c1cnc3cc(F)ccn13)c(=O)n2-c1ccc(F)c(Cl)c1 [Compound I-1053] | < 100 | < 100 |  |  | 
23 | COc1nc(N2[C@@H]3CC[C@H]2CNC3)cc2c1c(=O)n(-c1cnc3cc(Cl)ccn13)c(=O)n2Cc1cc(F)c(F)c(F)c1 [Compound I-0683] |  |  |  | 45.4 | 9.9
24 | COc1nc(N2CC[C@@H](F)C2)cc2c1c(=O)n(Cc1ncn(C)n1)c(=O)n2-c1cc(F)c(Cl)c(Cl)c1 [Compound I-0802] |  | 24 | 11.2 |  | 
25 | Cn1cnc(Cn2c(=O)c3c(cc(-c4cc(C#N)ccc4Cl)c[n+]3[O-])n(Cc3cc(F)c(F)c(F)c3)c2=O)n1 [Compound I-0697] | 1000 to 10000 | 100 to 1000 |  |  | 
26 | COc1nc2c(=O)n(Cc3ncn(C)n3)c(=O)n(Cc3cc(F)c(F)c(Cl)c3)c2cc1-c1cc(C(C)(C)O)ccc1Cl [Compound I-0701] |  | 5 | 16 |  | 
27 | COc1nc2c(=O)n(Cc3ncn(C)n3)c(=O)n(Cc3ccc(F)c(Cl)c3)c2cc1-c1cc(C#N)ccc1Cl [Compound I-0726] | < 100 | < 100 |  |  | 
28 | COc1nc(N2CC[C@@H](C#N)C2)cc2c1c(=O)n(-c1cncc(F)c1)c(=O)n2-c1ccc(F)c(Cl)c1 [Compound I-0938] | < 100 | < 100 |  |  | 
29 | [2H]C([2H])([2H])O[C@@H]1CCN(c2cc3c(c(OC)n2)c(=O)n(-c2cncc(C(F)F)c2)c(=O)n3-c2ccc(F)c(Cl)c2)C1 [Compound I-0970] | < 100 | < 100 |  |  | 
30 | COc1nc(N2CC[C@@H](O)C2)cc2c1c(=O)n(-c1cncc(Cl)c1)c(=O)n2-c1ccc(F)c(Cl)c1 [Compound I-0944] | < 100 | < 100 |  |  | 
31 | COc1nc(N2CCC(C)(O)C2)cc2c1c(=O)n(-c1cnc3cc(F)ccn13)c(=O)n2-c1ccc(F)c(Cl)c1 (stereo not shown) [Compound I-1043] | < 100 | < 100 |  |  | 
32 | COc1nc2c(=O)n(Cc3ncn(C)n3)c(=O)n(Cc3cc(Cl)c(F)cc3Cl)c2cc1-c1cc(C#N)ccc1Cl [Compound I-0551] | < 100 | < 100 |  |  | 
33 | COc1ccc(Cl)c(-c2cc(OC)c3c(=O)n(Cc4ncn(C)n4)c(=O)n(Cc4cc(F)c(F)c(F)c4)c3c2)n1 [Compound I-0895] | 100 to 1000 | < 100 |  |  | 
34 | CCc1cc2c(c(OC)n1)c(=O)n(-c1cnc3cc(F)ccn13)c(=O)n2-c1ccc(F)c(Cl)c1 [Compound I-1032] | < 100 | < 100 |  |  | 
35 | COc1nc(N2C[C@H](F)[C@@H](F)C2)cc2c1c(=O)n(-c1cnc3cc(F)ccn13)c(=O)n2-c1ccc(F)c(Cl)c1 [Compound I-0748] | < 100 | < 100 |  |  | 
36 | COc1nc(N2CC[C@@H](O)C2)cc2c1c(=O)n(-c1cncc(OC(F)F)c1)c(=O)n2-c1ccc(F)c(Cl)c1 [Compound I-0968] | < 100 | < 100 |  |  | 
37 | O=c1c2c(=O)n(-c3cnc4cc(F)ccn34)c(=O)n(-c3ccc(F)c(Cl)c3)c2cc2n1CC[C@@H]1CCCN21 [Compound I-0955] |  | 3.1 | 540 |  | 
38 | CC(C)Nc1cc2c(c(=O)n(Cc3ncn(C)n3)c(=O)n2Cc2cc(F)c(F)c(Cl)c2)c2nccnc12 [Compound I-0575] | < 100 | < 100 |  |  | 
